{"source": "patent US20220031605A1", "about": "“TARGETED DRUG DELIVERY SYSTEM TO BE USED IN TREATING OSTEOMYELITIS” (EGE UNIVERSITESI, priority 2018, published 2022)", "tested_on": "Staphylococcus Aureus", "experiment": "In vivo osteomyelitis model (Staphylococcus Aureus injected to proximal tibia), radiograph and hematological analysis", "parameters": "species or system Wistar albino rats", "conditions": "rat osteomyelitis model", "method": "Wistar albino rats were operated on, and osteomyelitis model was established by injecting Staphylococcus Aureus pathogen to the proximal tibia. In order to determined that the osteomyelitis model was formed, Xray (Radiograph) image was taken. The animals that were determined to have osteomyelitis, were separated into 3 groups, as the gelatin nanoparticle comprising gentamicin (I), free drug (II) and control (III) groups, and they were included in the treatment with 2-4 injections a weak. 100-300 μl, gelatin nanoparticle comprising gentamicin, free form (commercial gentamicin and physiological saline solution was injected intravenously into the tail vein of the groups I, II, and III respectively. On the 14th day following the commencement of treatment, a radiograph was taken in order to track the treatment process. Hematological analysis was carried out during the treatment and after the treatment. The lymphocyte reference range for rats was 1.4-9.4×10^3/μL. As a result of the haemogram carried out on healthy rats, the lymphocyte value was 7.4×10^3/μL."}
{"substance": "gentamicin [Free gentamicin]", "values": [{"measurement": "Lymphocyte number following 6 dose stherapy", "setting": "intravenous, tail vein, after 6 doses, reference range 1.4-9.4, healthy rats 7.4", "result": "12.6 10^3/μL"}, {"measurement": "Radiograph finding after therapy", "setting": "radiograph following 6 doses of therapy, compared with image 14 days after model establishment", "result": "abscess was present, bone integrity was not yet formed and healing was only present on the periost"}]}
